Reference: patent US20010033888A1, “Crystalline trehalose dihydrate, its preparation and uses” (KABUSHIK KAISHA HAYASHIBARA SEIBUTS KAGAKU KENKYUJO, priority 1998, published 2001)
Where “and” joins values, the source holds several entries; their conditions need not be identical. Equal entries are not always repeated.

Experiments:
Type in all cases: physicochemical
[1] = Crystallinity by powdery X-ray diffraction analysis (Ruland method); details: pulverized specimen, three specimens each, c axis about 10 mm, tetradodecahedral crystal
Protocol: The crystallinity was determined by pulverizing a specimen and applying the Ruland method in Acta Crystallographica, Vol. 14, p. […] As a control, commercially available crystal sugar with a size equivalent to those of the specimens was examined similarly as above.

[2] = Intrusion disruptive strength by rheometer (needle about 3 mm in diameter); details: stage elevated at 6 cm/min, three specimens each, strength when needle ruptures the crystal
Protocol: As a representative polyhedral crystalline trehalose dihydrate having the c axis of about 10 mm, obtained by the methods in the later described Examples A-1 and A-2, three specimens with a tetradodecahedral crystalline structure were used and examined for the crystallinity by powdery X-ray diffraction analysis and the intrusion disruptive strength by rheometer. The crystallinity was determined by pulverizing a specimen and applying the Ruland method in Acta Crystallographica, Vol. 14, p. 1,180 (1961) using “GEIGERFLEX RAD-IIB”, an X-ray diffraction analyzer using Cuka ray commercialized by Rigaku Corporation, Tokyo, Japan, based on the powdery X-ray diffraction intensity. Using “FUDOH RHEO METER NRM-2010J-CW”, a rheometer commercialized by Rheotech Co., Ltd., Tokyo, Japan; and a needle, about 3 mm in diameter, as an adaptor, the intrusion disruptive strength was determined by placing a polyhedral crystal on a specimen stage, elevating the stage to the direction of the needle at a rate of 6 cm/min, and measuring the strength (kg) when the needle intrudes into and ruptures the polyhedral crystal. As a control, commercially available crystal sugar with a size equivalent to those of the specimens was examined similarly as above.

[3] = Hygroscopicity / solidification of the crystal products; details: dried crystal product; dihydrate

Crystallinity ([1]; dihydrate) | Intrusion disruptive strength ([2]; dihydrate) | Compound | Hygroscopicity and solidification [3] | Crystallinity [1] | Intrusion disruptive strength [2]
84% and 83% | 4.3 kg and 4.1 kg and 4.0 kg | O.O.OC[C@H]1O[C@H](O[C@H]2O[C@H](CO)[C@@H](O)[C@H](O)[C@H]2O)[C@H](O)[C@@H](O)[C@@H]1O [Example A-1, crystalline trehalose dihydrate] | do not substantially absorb moisture to be solidified |  | 
84% and 83% | 3.8 kg and 3.5 kg | O.O.OC[C@H]1O[C@H](O[C@H]2O[C@H](CO)[C@@H](O)[C@H](O)[C@H]2O)[C@H](O)[C@@H](O)[C@@H]1O [Example A-2, crystalline trehalose dihydrate] | insubstantial hygroscopicity and solidification |  | 
 |  | OC[C@H]1O[C@@](CO)(O[C@H]2O[C@H](CO)[C@@H](O)[C@H](O)[C@H]2O)[C@@H](O)[C@@H]1O [Sugar crystal, reference compound] |  | 84% and 85% | 9.9 kg and 10.0 kg
